Laboratory results: patent publication US10238743B2 (Merck Sharp & Dohme Corp., priority 2014, dated 2019)

Columns and labels:
[1] = target: soluble human BACE1 catalytic domain (Homo sapiens (Human), UniProt P56817); experiment: BACE1 HTRF FRET Assay; type: biochemical; conditions: Ki calculated from IC50 using the Cheng-Prusoff equation; QSY7-APPswe-Eu substrate, pH 5.0; read-out: BACE-1 Ki
Excerpt: Na^+-Acetate pH 5.0; 1% Brij-35; Glycerol; Dimethyl Sulfoxide (DMSO); Recombinant human soluble BACE1 catalytic domain (>95% pure); APP Swedish mutant peptide substrate (QSY7-APP^swe-Eu): QSY7-EISEVNLDAEFC-Europium-amide.
A homogeneous time-resolved FRET assay can be used to determine IC50 values for inhibitors of the soluble human BACE1 catalytic domain. This assay monitors the increase of 620 nm fluorescence that resulted from BACE1 cleavage of an APPswedish APP^swe mutant peptide FRET substrate (QSY7-EISEVNLDAEFC-Europium-amide). This substrate contains an N-terminal QSY7 moiety that serves as a quencher of the C-terminal Europium fluorophore (620 nm Em). In the absence of enzyme activity, 620 nm fluorescence is low in the assay and increased linearly over 3 hours in the presence of uninhibited BACE1 enzyme. Inhibition of BACE1 cleavage of the QSY7-APP^swe-Eu substrate by inhibitors is manifested as a suppression of 620 nm fluorescence.
Varying concentrations of inhibitors at 3× the final desired concentration in a volume of 10 ul are preincubated with purified human BACE1 catalytic domain (3 nM in 10 μl) for 30 minutes at 30° C. in reaction buffer containing 20 mM Na-Acetate pH 5.0, 10% glycerol, 0.1% Brij-35 and 7.5% DSMO. Reactions are initiated by addition of 10 μl of 600 nM QSY7-APP^swe-Eu substrate (200 nM final) to give a final reaction volume of 30 μl in a 384 well Nunc HTRF plate. The reactions are incubated at 30° C. for 1.5 hours. The 620 nm fluorescence is then read on a Rubystar HTRF plate reader (BMG Labtechnologies) using a 50 millisecond delay followed by a 400 millisecond acquisition time window. Inhibitor IC50 values are derived from non-linear regression analysis of concentration response curves. Ki values are then calculated from IC50 values using the Cheng-Prusoff equation using a previously determined […] of 8 μM for the QSY7-APP^swe-Eu substrate at BACE1.

[2] = target: purified human autoBACE-2 (Homo sapiens (Human), UniProt Q9Y5Z0); experiment: BACE-2 Assay (BACE-HTRF assay); type: biochemical; conditions: Ki calculated from IC50 using the Cheng-Prusoff equation; QSY7-EISEVNLDAEFC-Eu-amide substrate, pH 5.0
Sequence of purified human autoBACE-2 (Q9Y5Z0 63-473 limits assumed): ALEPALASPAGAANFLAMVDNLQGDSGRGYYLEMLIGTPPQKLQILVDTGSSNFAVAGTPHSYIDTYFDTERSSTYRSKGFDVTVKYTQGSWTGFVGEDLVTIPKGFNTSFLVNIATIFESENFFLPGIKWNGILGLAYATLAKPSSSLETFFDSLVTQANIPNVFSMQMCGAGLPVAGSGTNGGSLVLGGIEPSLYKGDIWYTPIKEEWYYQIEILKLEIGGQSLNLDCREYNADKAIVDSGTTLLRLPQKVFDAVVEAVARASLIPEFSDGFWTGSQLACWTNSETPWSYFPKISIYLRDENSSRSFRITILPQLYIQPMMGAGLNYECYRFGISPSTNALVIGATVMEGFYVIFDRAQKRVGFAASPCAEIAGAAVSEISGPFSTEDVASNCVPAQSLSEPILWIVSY
Experimental: Inhibitor IC50s at purified human autoBACE-2 are determined in a time-resolved endpoint proteolysis assay that measures hydrolysis of the QSY7-[…]-Eu-amide FRET peptide substrate (BACE-HTRF assay). […] DMSO is present at 5% final concentration in the assay. Following laser excitation of sample wells at 320 nm, the fluorescence signal at 620 nm is collected for 400 ms following a 50 μs delay on a RUBYstar HTRF plate reader (BMG Labtechnologies). Raw RFU data is normalized to maximum (1.0 nM BACE/DMSO) and minimum (no enzyme/DMSO) RFU values. […] The Ki values are calculated from the IC50 using the Cheng-Prusoff equation.

Sequence of soluble human BACE1 catalytic domain (P56817 75-416): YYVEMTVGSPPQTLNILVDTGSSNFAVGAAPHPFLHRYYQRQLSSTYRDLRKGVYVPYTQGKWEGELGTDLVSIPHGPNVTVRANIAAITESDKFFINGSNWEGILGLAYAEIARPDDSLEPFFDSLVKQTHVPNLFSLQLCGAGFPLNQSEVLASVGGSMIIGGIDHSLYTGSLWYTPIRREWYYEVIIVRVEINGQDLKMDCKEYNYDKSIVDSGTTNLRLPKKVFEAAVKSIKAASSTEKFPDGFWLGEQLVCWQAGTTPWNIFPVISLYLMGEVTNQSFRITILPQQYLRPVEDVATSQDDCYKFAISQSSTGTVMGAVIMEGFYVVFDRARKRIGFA

Structure (SMILES)	Ki [1] [nM]	Ki [2] [nM]
Cc1cc(F)cnc1C(=O)Nc1ccc2c(c1)[C@@]1(C)NC(=N)N(C)S(=O)(=O)[C@@H]1CCO2 [Example 8, 5-fluoro-N-((4aR,11bR)-2-imino-3,11b-dimethyl-4,4-dioxido-2,3,4a,5,6,11b-hexahydro-1H-benzo[2,3]oxepino[4,5-e][1,2,4]thiadiazin-10-yl)-3-methylpicolinamide]	133	86
CN1C(=N)N[C@]2(C)c3cc(NC(=O)c4ccc(OC(F)(F)F)cn4)ccc3CCC[C@@H]2S1(=O)=O [Example 29, N-((4aS,11bR)-2-imino-3,11b-dimethyl-4,4-dioxido-1,2,3,4a,5,6,7,11b-octahydrobenzo[6,7]cyclohepta[1,2-e][1,2,4]thiadiazin-10-yl)-5-(trifluoromethoxy)picolinamide]	14	144
Cc1cc(F)cnc1C(=O)Nc1ccc2c(c1)[C@@]1(C)NC(=N)N(C)S(=O)(=O)[C@H]1CCC2 [Example 31, 5-fluoro-N-((4aS,11bR)-2-imino-3,11b-dimethyl-4,4-dioxido-1,2,3,4a,5,6,7,11b-octahydrobenzo[6,7]cyclohepta[1,2-e][1,2,4]thiadiazin-10-yl)-3-methylpicolinamide]	19	10
COc1cnc2c(Nc3ccc4c(c3)[C@@]3(C)NC(=N)N(C)S(=O)(=O)[C@H]3CCO4)nccc2c1 [Example 43, (4aS,11bR)-2-imino-10-((3-methoxy-1,7-naphthyridin-8-yl)amino)-3,11b-dimethyl-2,3,4a,5,6,11b-hexahydro-1H-benzo[2,3]oxepino[4,5-e][1,2,4]-thiadiazine 4,4-dioxide]	57	148
Cc1ccc(C(=O)Nc2ccc3c(c2)[C@@]2(C)NC(=N)N(C)S(=O)(=O)[C@H]2CCC3)nc1 [Example 21, N-((4aS,11bR)-2-imino-3,11b-dimethyl-4,4-dioxido-1,2,3,4a,5,6,7,11b-octahydrobenzo[6,7]cyclohepta[1,2-e][1,2,4]thiadiazin-10-yl)-5-methylpicolinamide]	45	34
CN1C(=N)N[C@]2(C)c3cc(NC(=O)c4ncc(C(F)(F)F)cc4Cl)ccc3OCC[C@@H]2S1(=O)=O [Example 20, 3-chloro-N-((4aS,11bR)-2-imino-3,11b-dimethyl-4,4-dioxido-2,3,4a,5,6,11b-hexahydro-1H-benzo[2,3]oxepino[4,5-e][1,2,4]thiadiazin-10-yl)-5-(trifluoromethyl)picolinamide]	5	36
CN1C(=N)N[C@]2(C)c3cc(NC(=O)c4ncc(C(F)(F)F)cc4Cl)ccc3CCC[C@@H]2S1(=O)=O [Example 30, 3-chloro-N-((4aS,11bR)-2-imino-3,11b-dimethyl-4,4-dioxido-1,2,3,4a,5,6,7,11b-octahydrobenzo[6,7]cyclohepta[1,2-e][1,2,4]thiadiazin-10-yl)-5-(trifluoromethyl)picolinamide]	10	82
COc1cc(Br)cnc1C(=O)Nc1ccc2c(c1)[C@@]1(C)NC(=N)N(C)S(=O)(=O)[C@H]1CCC2 [Example 27, 5-bromo-N-((4aS,11bR)-2-imino-3,11b-dimethyl-4,4-dioxido-1,2,3,4a,5,6,7,11b-octahydrobenzo[6,7]cyclohepta[1,2-e][1,2,4]thiadiazin-10-yl)-3-methoxypicolinamide]	18	10
COc1cnc(C(=O)Nc2ccc3c(c2)[C@@]2(C)NC(=N)N(C)S(=O)(=O)[C@H]2CCC3)c(C)n1 [Example 33]	48	86
CN1C(=N)N[C@]2(C)c3cc(NC(=O)c4ccc(C(F)(F)F)cn4)ccc3OCC[C@@H]2S1(=O)=O [Example 18, N-((4aS,11bR)-2-imino-3,11b-dimethyl-4,4-thoxido-2,3,4a,5,6,11b-hexahydro-1H-benzo[2,3]oxepino[4,5-e][1,2,4]thiadiazin-10-yl)-5-(trifluoromethyl)picolinamide]	11	79
CN1C(=N)N[C@]2(C)c3cc(NC(=O)c4ncc(Cl)cc4Cl)ccc3OCC[C@@H]2S1(=O)=O [Example 11]	2	2
CN1C(=N)N[C@]2(C)c3cc(NC(=O)c4ccccn4)ccc3OCC[C@H]2S1(=O)=O [Example 2, N-((4aR,11bR)-2-imino-3,11b-dimethyl-4,4-dioxido-2,3,4a,5,6,11b-hexahydro-1H-benzo[2,3]oxepino[4,5-e][1,2,4]thiadiazin-10-yl)picolinamide]	508	279
CN1C(=N)N[C@]2(C)c3cc(NC(=O)c4ccc(C#N)cn4)ccc3OCC[C@H]2S1(=O)=O [Example 5, 5-cyano-N-((4aR,11bR)-2-imino-3,11b-dimethyl-4,4-dioxido-2,3,4a,5,6,11b-hexahydro-1H-benzo[2,3]oxepino[4,5-e][1,2,4]thiadiazin-10-yl)picolinamide]	47	303
CN1C(=N)N[C@]2(C)c3cc(NC(=O)c4ccc(F)cn4)ccc3OCC[C@@H]2S1(=O)=O [Example 14, 5-fluoro-N-((4aS,11bR)-2-imino-3,11b-dimethyl-4,4-dioxido-2,3,4a,5,6,11b-hexahydro-1H-benzo[2,3]oxepino[4,5-e][1,2,4]thiadiazin-10-yl)picolinamide]	10	6
Cc1cnc(C(=O)Nc2ccc3c(c2)[C@@]2(C)NC(=N)N(C)S(=O)(=O)[C@H]2CCC3)cn1 [Example 24, N-((4aS,11bR)-2-imino-3,11b-dimethyl-4,4-dioxido-1,2,3,4a,5,6,7,11b-octahydrobenzo[6,7]cyclohepta[1,2-e][1,2,4]thiadiazin-10-yl)-5-methylpyrazine-2-carboxamide]	168	251
COc1cnc2c(Nc3ccc4c(c3)[C@@]3(C)NC(=N)N(C)S(=O)(=O)[C@H]3CCO4)nccc2n1 [Example 41, (4aS,11bR)-2-imino-10-((2-methoxypyrido[3,4-b]pyrazin-5-yl)amino)-3,11b-dimethyl-2,3,4a,5,6,11b-hexahydro-1H-benzo[2,3]oxepino[4,5-e][1,2,4]-thiadiazine 4,4-dioxide]	60	135
COc1cnc2c(Nc3ccc4c(c3)[C@@]3(C)NC(=N)N(C)S(=O)(=O)[C@H]3CCC4)ccnc2n1 [Example 45, (4aS,11bR)-2-imino-10-((3-methoxypyrido[2,3-b]pyrazin-8-yl)amino)-3,11b-dimethyl-1,2,3,4a,5,6,7,11b-octahydrobenzo[6,7]cyclohepta[1,2-e][1,2,4]-thiadiazine 4,4-dioxide]	547	2440
CN1C(=N)N[C@]2(C)c3cc(NC(=O)c4ccc(Cl)cn4)ccc3CCC[C@@H]2S1(=O)=O [Example 23, 5-chloro-N-((4aS,11bR)-2-imino-3,11b-dimethyl-4,4-dioxido-1,2,3,4a,5,6,7,11b-octahydrobenzo[6,7]cyclohepta[1,2-e][1,2,4]thiadiazin-10-yl)picolinamide]	7	7
CN1C(=N)N[C@]2(C)c3cc(NC(=O)c4ccc(F)cn4)ccc3OCC[C@H]2S1(=O)=O [Example 7, 5-fluoro-N-((4aR,11bR)-2-imino-3,11b-dimethyl-4,4-dioxido-2,3,4a,5,6,11b-hexahydro-1H-benzo[2,3]oxepino[4,5-e][1,2,4]thiadiazin-10-yl)picolinamide]	108	159
